# What was measured:
# hPAD4 enzyme [1] = target: T1, hPAD4 enzyme (Homo sapiens (Human), UniProt Q9UM07); assay: RFMS2 assay (RapidFire mass spectrometry, TSTGGRQGSHH peptide substrate); format: biochemical; details: 35 nM recombinant human PAD4, 500 μM TSTGGRQGSHH peptide, 30 minutes at room temperature; read-out: RFMS 2 IC50
# Procedure, shortened: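 IC50 derived from RapidFire LC-MS/MS (positive ESI MRM) of substrate versus product after a 30 min room-temperature reaction stopped with 10% formic acid. Reaction contained 35 nM human PAD4, 500 μM peptide, 2 mM CaCl2, 5 mM DTT at pH 7.4, and compounds diluted 3-fold from 20 μM.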
# hPAD4 enzyme [2] = target: T1, hPAD4 enzyme; assay: RFMS1 assay (RapidFire mass spectrometry, BAEE substrate); format: biochemical; details: 5 nM hPAD4, 250 μM BAEE, 30 min preincubation at 37° C., 90 min reaction; read-out: RFMS 1 IC50
# Method: Compounds were solubilized in 100% DMSO to achieve a 10 mM compound concentration. Compound stock solutions were stored at RT. A series of dilutions were prepared in DMSO and mixed 8 times with 20 μL mixing volume. Final top concentration of compound in the assay is 50 μM. Final assay conditions were as follows: • Reaction volume: 26 μl • Assay buffer: 25 mM hepes, pH 7.5, 5 mM NaCl, 1 mM DTT, 0.2 mg/ml BSA, 0.01% CHAPS, 50 µM Calcium, and 5 μM TPEN • Final concentrations: 5 nM hPAD4 enzyme, 250 µM BAEE, and 0.5% DMSO • Total incubation time: 30 mins compound and enzyme preincubation at 37° C., 90 min enzyme/substrate reaction, 30 min reaction with phenyl glyoxal at 37° C. • Stop solution: 40 μl 5% TCA in ACN • 0.13 μL of compound solution was added to 13 μL of 10 nM PAD4 in assay buffer. After […] min 13 μl of 500 µM of BAEE was added in 25 mM hepes, pH 7.5, 5 mM NaCl, 1 mM DTT, 0.2 mg/ml BSA, 0.01% CHAPS, 50 μM Calcium, 5 μM TPEN was added and the reaction incubated for 90 min at 37° C. The enzymatic reaction was quenched by addition of 15 μl of 6.1N TCA, 100% Final Concentration is 20%, 35 μl of 8.5 mM phenyl glyoxal (final concentration 4 mM) is then added and the reaction is incubated for 30 min at 37° C.
# After 30 minutes the plates are spun down to remove all precipitate. The enzyme reaction was quenched with an equal volume of methanol containing internal standard (modified citrulline). Samples were loaded onto the Rapid Fire RF300 system (Agilent) wherein they were first sipped for 1000 ms and then directly loaded to a C18 separations cartridge using a mixture of acetonitrile containing 0.01% formic acid for 3000 ms desalting. The flow rate of the mobile phase was 1.5 ml/min. Once the samples were eluted from the cartridge, a mobile phase of acetonitrile containing 0.01% formic acid was used to move the samples into the mass spectrometer for 4000 ms at a flow rate of 1.25 ml/min/Sciex API5500 triple quadrupole mass spectrometer (Applied Biosystems) equipped with ESI was used to analyze the peptidyl citrulline and internal standard ions.
# MRM transition of product and internal standard were monitored at m/z 424.5 to 350.4 and m/z 293 to 247 respectively. The dwell time for each transition was set at 200 ms, and the ESI voltage was used at 5500 with a source temperature of 400° C. Extracted ion peaks for each transition were integrated using the Rapid Fire Integrator software. Peak area of analyte was normalized with internal standard.).
# Compounds having an activity designated as “A” provided an IC50≤10 nM; compounds having an activity designated as “B” provided an IC50 11-100 nM; compounds having an activity designated as “C” provided an IC50 101-500 nM; compounds having an activity designated as “D” provided an IC50 501-1000 nM; compounds having an activity designated as “E” provided an IC50>1000 nM.
# T1 sequence (Q9UM07 whole entry): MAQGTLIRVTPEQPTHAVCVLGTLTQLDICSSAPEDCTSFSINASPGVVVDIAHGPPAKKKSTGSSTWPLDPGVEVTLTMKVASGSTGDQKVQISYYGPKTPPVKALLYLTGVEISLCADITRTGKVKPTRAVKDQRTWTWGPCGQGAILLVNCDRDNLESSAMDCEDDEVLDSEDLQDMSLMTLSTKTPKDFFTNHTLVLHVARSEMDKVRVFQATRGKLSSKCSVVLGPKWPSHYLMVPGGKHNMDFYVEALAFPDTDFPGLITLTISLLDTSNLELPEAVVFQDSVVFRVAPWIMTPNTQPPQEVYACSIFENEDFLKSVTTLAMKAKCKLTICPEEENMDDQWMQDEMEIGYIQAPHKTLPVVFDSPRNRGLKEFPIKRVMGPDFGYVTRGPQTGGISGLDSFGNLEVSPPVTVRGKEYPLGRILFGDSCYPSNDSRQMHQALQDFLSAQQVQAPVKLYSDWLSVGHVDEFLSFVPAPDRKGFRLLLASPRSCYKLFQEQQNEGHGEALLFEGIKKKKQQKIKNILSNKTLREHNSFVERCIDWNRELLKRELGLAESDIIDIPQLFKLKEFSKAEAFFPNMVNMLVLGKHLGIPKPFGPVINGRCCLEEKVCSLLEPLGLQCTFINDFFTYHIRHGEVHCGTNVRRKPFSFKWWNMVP
Structure (SMILES),IC50 (hPAD4 enzyme [1]) [µM],IC50 (hPAD4 enzyme [2]) [µM]
"Cn1c(-c2cc3ccccc3n2CC2CC2)nc2cc3c(cc21)CCN(C[C@H](N)C1CC1)C3=O [Example 10, (R)-6-(2-amino-2-cyclopropylethyl)-2-(1-(cyclopropylmethyl)-1H-indol-2-yl)-1-methyl-1,6,7,8-tetrahydro-5H-imidazo[4,5-g]isoquinolin-5-one]",0.101 to 0.5,0.101 to 0.5
"CC(C)[C@@H](N)CN1CCc2cc3c(cc2C1=O)nc(-c1cc2ccccc2n1CC1CC1)n3C [Example 11, (R)-6-(2-amino-3-methylbutyl)-2-(1-(cyclopropylmethyl)-1H-indol-2-yl)-1-methyl-1,6,7,8-tetrahydro-5H-imidazo[4,5-g]isoquinolin-5-one]",> 1,> 1
"Cn1c(-c2cc3ccccc3n2CC2CC2)nc2cc3c(cc21)CCN(C[C@H](N)CF)C3=O [Example 12, (S)-6-(2-amino-3-fluoropropyl)-2-(1-(cyclopropylmethyl)-1H-indol-2-yl)-1-methyl-1,6,7,8-tetrahydro-5H-imidazo[4,5-g]isoquinolin-5-one]",0.101 to 0.5,0.101 to 0.5
"Cn1c(-c2cc3ccccc3n2CC2CC2)nc2cc3c(cc21)CCN(C[C@H]1COCCN1)C3=O [Example 13, (S)-2-(1-(cyclopropylmethyl)-1H-indol-2-yl)-1-methyl-6-(morpholin-3-ylmethyl)-1,6,7,8-tetrahydro-5H-imidazo[4,5-g]isoquinolin-5-one]",0.501 to 1,0.101 to 0.5
"Cn1c(-c2cc3ccccc3n2CC2CC2)nc2cc3c(cc21)CCN(C[C@H](N)C(F)F)C3=O [Example 14, (S)-6-(2-amino-3,3-difluoropropyl)-2-(1-(cyclopropylmethyl)-1H-indol-2-yl)-1-methyl-1,6,7,8-tetrahydro-5H-imidazo[4,5-g]isoquinolin-5-one]",> 1,0.501 to 1
"COc1cccc2cc(-c3nc4cc5c(cc4n3C)CCN(C[C@H](N)[C@H](C)F)C5=O)n(CC3CC3)c12 [Example 15a, 6-((2S,3S)-2-amino-3-fluorobutyl)-2-(1-(cyclopropylmethyl)-7-methoxy-1H-indol-2-yl)-1-methyl-1,6,7,8-tetrahydro-5H-imidazo[4,5-g]isoquinolin-5-one]",0.101 to 0.5,0.101 to 0.5
"COc1cc(F)cc2cc(-c3nc4cc5c(cc4n3C)CCN(C[C@H](N)CF)C5=O)n(CC3CC3)c12 [Example 65, (S)-6-(2-amino-3-fluoropropyl)-2-(1-(cyclopropylmethyl)-5-fluoro-7-methoxy-1H-indol-2-yl)-1-methyl-1,6,7,8-tetrahydro-5H-imidazo[4,5-g]isoquinolin-5-one]",0.101 to 0.5,0.011 to 0.1
"COC1CCN(c2ccc3cc(-c4nc5cc6c(cc5n4C)CCN(C[C@H](N)CF)C6=O)n(CC4CC4)c3c2)CC1 [Example 68, (S)-6-(2-amino-3-fluoropropyl)-2-(1-(cyclopropylmethyl)-6-(4-methoxypiperidin-1-yl)-1H-indol-2-yl)-1-methyl-1,6,7,8-tetrahydro-5H-imidazo[4,5-g]isoquinolin-5-one]",> 1,0.011 to 0.1

# Other lines, results leading:
IC50 (hPAD4 enzyme [1]) [µM],IC50 (hPAD4 enzyme [2]) [µM],Structure (SMILES)
0.501 to 1,0.101 to 0.5,"COc1cccc2cc(-c3nc4cc5c(cc4n3C)CCN(C[C@H](N)C(C)F)C5=O)n(CC3CC3)c12 (stereo partly drawn) [Example 15b, 6-((2S,3R)-2-amino-3-fluorobutyl)-2-(1-(cyclopropylmethyl)-7-methoxy-1H-indol-2-yl)-1-methyl-1,6,7,8-tetrahydro-5H-imidazo[4,5-g]isoquinolin-5-one]"
0.011 to 0.1,0.011 to 0.1,"COc1cccc2cc(-c3nc4cc5c(cc4n3C)CCN(C[C@@H](C)N)C5=O)n(CC3CC3)c12 [Example 35, (R)-6-(2-aminopropyl)-2-(1-(cyclopropylmethyl)-7-methoxy-1H-indol-2-yl)-1-methyl-1,6,7,8-tetrahydro-5H-imidazo[4,5-g]isoquinolin-5-one]"
0.101 to 0.5,0.101 to 0.5,"Cc1cccc2cc(-c3nc4cc5c(cc4n3C)CCN(C[C@H](N)CF)C5=O)n(CC3CC3)c12 [Example 48, (S)-6-(2-amino-3-fluoropropyl)-2-(1-(cyclopropylmethyl)-7-methyl-1H-indol-2-yl)-1-methyl-1,6,7,8-tetrahydro-5H-imidazo[4,5-g]isoquinolin-5-one]"
0.101 to 0.5,0.011 to 0.1,"COc1cccc2cc(-c3nc4cc5c(cc4n3C)CCN(C[C@H](N)CF)C5=O)n(CC3CC3)c12 [Example 53, (S)-6-(2-amino-3-fluoropropyl)-2-(1-(cyclopropylmethyl)-7-methoxy-1H-indol-2-yl)-1-methyl-1,6,7,8-tetrahydro-5H-imidazo[4,5-g]isoquinolin-5-one]"
0.101 to 0.5,0.011 to 0.1,"Cc1cc(C(N)=O)c(F)cc1-c1ccc2cc(-c3nc4cc5c(cc4n3C)CCN(C[C@H](N)CF)C5=O)n(CC3CC3)c2n1 [Example 60, (S)-4-(2-(6-(2-amino-3-fluoropropyl)-1-methyl-5-oxo-5,6,7,8-tetrahydro-1H-imidazo[4,5-g]isoquinolin-2-yl)-1-(cyclopropylmethyl)-1H-pyrrolo[2,3-b]pyridin-6-yl)-2-fluoro-5-methylbenzamide]"
0.101 to 0.5,0.101 to 0.5,"COCCn1c(-c2nc3cc4c(cc3n2C)CCN(C[C@H](N)CF)C4=O)cc2cccc(OC)c21 [Example 102, (S)-6-(2-amino-3-fluoropropyl)-2-(7-methoxy-1-(2-methoxyethyl)-1H-indol-2-yl)-1-methyl-1,6,7,8-tetrahydro-5H-imidazo[4,5-g]isoquinolin-5-one]"
0.101 to 0.5,0.011 to 0.1,"COc1cccc2cc(-c3nc4cc5c(cc4n3C)CCN(C[C@H](N)CF)C5=O)n(Cc3cc(C)no3)c12 [Example 113, (S)-6-(2-amino-3-fluoropropyl)-2-(7-methoxy-1-((3-methylisoxazol-5-yl)methyl)-1H-indol-2-yl)-1-methyl-1,6,7,8-tetrahydro-5H-imidazo[4,5-g]isoquinolin-5-one]"
0.101 to 0.5,0.011 to 0.1,"COc1cccc2cc(-c3nc4cc5c(cc4n3C)CCN(C[C@H](N)CF)C5=O)n(Cc3ncco3)c12 [Example 119, (S)-6-(2-amino-3-fluoropropyl)-2-(7-methoxy-1-(oxazol-2-ylmethyl)-1H-indol-2-yl)-1-methyl-1,6,7,8-tetrahydro-5H-imidazo[4,5-g]isoquinolin-5-one]"
0.101 to 0.5,0.011 to 0.1,"COc1cccc2cc(-c3nc4cc5c(cc4n3C)CCN(C[C@H](N)CF)C5=O)n(Cc3nc(C)co3)c12 [Example 124, (S)-6-(2-amino-3-fluoropropyl)-2-(7-methoxy-1-((4-methyloxazol-2-yl)methyl)-1H-indol-2-yl)-1-methyl-1,6,7,8-tetrahydro-5H-imidazo[4,5-g]isoquinolin-5-one]"
0.101 to 0.5,0.101 to 0.5,"COc1cccc2cc(-c3nc4cc5c(cc4n3C)CCN(C[C@H](N)CF)C5=O)n(Cc3nccs3)c12 [Example 127, (S)-6-(2-amino-3-fluoropropyl)-2-(7-methoxy-1-(thiazol-2-ylmethyl)-1H-indol-2-yl)-1-methyl-1,6,7,8-tetrahydro-5H-imidazo[4,5-g]isoquinolin-5-one]"
0.101 to 0.5,0.011 to 0.1,"COc1cccc2cc(-c3nc4cc5c(cc4n3C)CCN(C[C@H](N)CF)C5=O)n(Cc3cc(N)no3)c12 [Example 146, (S)-6-(2-amino-3-fluoropropyl)-2-(1-((3-aminoisoxazol-5-yl)methyl)-7-methoxy-1H-indol-2-yl)-1-methyl-1,6,7,8-tetrahydro-5H-imidazo[4,5-g]isoquinolin-5-one]"

# Source: patent US20250346592A1 (Celgene Corporation, priority 2022, published 2025)
